# Data taken from paper PMC11425660, “[^186Re]Re- and [^99mTc]Tc-Tricarbonyl Metal Complexes with 1,4,7-Triazacyclononane-Based Chelators Bearing Amide, Alcohol, or Ketone Pendent Groups” (ACS Omega, 2024).
# What was measured:
# [1] = storage stability (observation); assay type: physicochemical
# [2] = solubility in solvents (observation); assay type: physicochemical; conditions: solvents as named in the value
SMILES,storage stability ([1]; stored at 4 °C),solubility [2],storage stability ([1]; room temperature)
"NC(=O)CN1CCN(CC(N)=O)CCN(CC(=O)NCc2ccccc2)CC1 [Chelator 2, 2,2′-(7-(2-(Benzylamino)-2-oxoethyl)-1,4,7-triazonane-1,4-diyl)diacetamide]",stable when stored at 4 °C for several weeks,"soluble in water, methanol, acetonitrile, and dimethyl sulfoxide",
"O=C(CN1CCN(CCO)CCN(CCO)CC1)NCc1ccccc1 [Chelator 3, N-Benzyl-2-(4,7-bis(2-hydroxyethyl)-1,4,7,-triazonan-1-yl)acetamide]",stable when stored at 4 °C for several weeks,"soluble in water, methanol, acetonitrile, and dimethyl sulfoxide",
"CC(=O)CN1CCN(CC(C)=O)CCN(CC(=O)NCc2ccccc2)CC1 [Chelator 4, N-Benzyl-2-(4,7-bis(2-oxopropyl)-1,4,7-triazonan-1-yl)acetamide]",stable at 4 °C for several weeks,soluble in dimethyl sulfoxide,
"O=C(O)CN1CCN(CC(=O)O)CCN(CC(=O)NCc2ccccc2)CC1 [Chelator 5, 2,2′-(7-(2-(Benzylamino)-2-oxoethyl)-1,4,7-triazonane-1,4-diyl)diacetic Acid]",,"soluble in water, methanol, acetonitrile, and dimethyl sulfoxide",stable at room temperature for several months
